Laboratory results taken from patent US11339130B1 (Blade Therapeutics, Inc., priority 2016, dated 2022).
Read-outs that look alike come from different tables or passages of the source.

Legend:
Human Calpain 1/NS1 = target: T1, Human Calpain 1/NS1 (Homo sapiens, UniProt P07384); experiment: Calpain inhibition continuous fluorescence (FRET) assay, Human Calpain 1/NS1; format: biochemical; settings: read-out: Human Calpain 1/NS1 IC50
T1 sequence (P07384 1-714): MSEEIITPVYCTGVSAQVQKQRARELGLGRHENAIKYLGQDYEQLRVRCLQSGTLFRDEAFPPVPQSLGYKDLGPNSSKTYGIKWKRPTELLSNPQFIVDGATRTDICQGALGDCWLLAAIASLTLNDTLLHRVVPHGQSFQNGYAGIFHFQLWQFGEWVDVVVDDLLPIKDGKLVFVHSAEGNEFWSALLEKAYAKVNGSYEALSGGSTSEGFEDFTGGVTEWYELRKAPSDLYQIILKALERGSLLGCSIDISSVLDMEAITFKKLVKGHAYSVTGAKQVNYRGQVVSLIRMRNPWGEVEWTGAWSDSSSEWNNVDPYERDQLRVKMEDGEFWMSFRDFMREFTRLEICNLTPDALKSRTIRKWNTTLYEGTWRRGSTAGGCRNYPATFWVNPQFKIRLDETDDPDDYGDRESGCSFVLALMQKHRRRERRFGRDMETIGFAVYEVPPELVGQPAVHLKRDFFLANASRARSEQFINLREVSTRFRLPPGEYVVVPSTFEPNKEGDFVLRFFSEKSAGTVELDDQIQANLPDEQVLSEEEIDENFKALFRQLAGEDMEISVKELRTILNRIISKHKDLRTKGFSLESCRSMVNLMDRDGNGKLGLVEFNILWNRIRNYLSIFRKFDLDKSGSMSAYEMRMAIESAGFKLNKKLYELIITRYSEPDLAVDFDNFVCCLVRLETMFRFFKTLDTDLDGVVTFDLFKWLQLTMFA
T1 sequence (P04632 1-268 partner): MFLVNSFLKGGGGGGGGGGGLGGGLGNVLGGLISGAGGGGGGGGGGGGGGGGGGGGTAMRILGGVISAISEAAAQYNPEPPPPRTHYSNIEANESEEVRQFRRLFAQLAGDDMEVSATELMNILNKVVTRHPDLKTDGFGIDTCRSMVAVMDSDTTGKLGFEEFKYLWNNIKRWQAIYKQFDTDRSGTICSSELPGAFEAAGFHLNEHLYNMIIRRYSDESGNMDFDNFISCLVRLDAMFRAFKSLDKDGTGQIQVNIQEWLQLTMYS
Procedure, shortened: (§1)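 Continuous FRET read (ex 490/em 520 nm, 10 min) of calpain 1, 2 or 9 cleaving an internally quenched 5-FAM peptide, triggered by substrate with CaCl2 after enzyme–inhibitor incubation at ambient 25 °C, pH 7.5 Tris/NaCl/DTT buffer. IC50 from initial rates (1-5 min) via 4-parameter fit.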

Human Calpain 2/NS1 = target: T2, Human Calpain 2/NS1 (Homo sapiens, UniProt P17655); experiment: Calpain inhibition continuous fluorescence (FRET) assay, Human Calpain 2/NS1; format: biochemical; settings: read-out: Human Calpain 2/NS1 IC50
T2 sequence (P17655 1-700): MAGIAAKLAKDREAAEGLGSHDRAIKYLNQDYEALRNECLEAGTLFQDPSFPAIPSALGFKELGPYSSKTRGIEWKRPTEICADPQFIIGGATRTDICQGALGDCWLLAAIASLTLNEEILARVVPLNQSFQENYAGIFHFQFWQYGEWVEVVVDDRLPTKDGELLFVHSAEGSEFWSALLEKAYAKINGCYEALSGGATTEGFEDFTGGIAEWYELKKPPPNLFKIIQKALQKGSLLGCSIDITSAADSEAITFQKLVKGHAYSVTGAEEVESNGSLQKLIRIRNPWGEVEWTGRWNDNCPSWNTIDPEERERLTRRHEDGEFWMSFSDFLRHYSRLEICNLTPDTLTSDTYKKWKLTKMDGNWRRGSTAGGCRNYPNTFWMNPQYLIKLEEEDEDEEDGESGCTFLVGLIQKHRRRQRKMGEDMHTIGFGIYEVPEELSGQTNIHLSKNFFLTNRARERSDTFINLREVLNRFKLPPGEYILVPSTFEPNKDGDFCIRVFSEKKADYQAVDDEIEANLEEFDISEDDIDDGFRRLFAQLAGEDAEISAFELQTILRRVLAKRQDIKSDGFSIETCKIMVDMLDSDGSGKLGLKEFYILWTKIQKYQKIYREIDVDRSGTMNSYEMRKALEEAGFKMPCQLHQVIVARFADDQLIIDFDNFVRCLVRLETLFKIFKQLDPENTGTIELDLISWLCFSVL
T2 sequence (P04632 1-268 partner): T1 sequence (P04632 1-268 partner)
Procedure, shortened: as §1

Human Calpain 9/NS1 = target: T3, Human Calpain 9/NS1 (Homo sapiens, UniProt O14815); experiment: Calpain inhibition continuous fluorescence (FRET) assay, Human Calpain 9/NS1; format: biochemical; settings: read-out: Human Calpain 9/NS1 IC50
T3 sequence (O14815 1-690): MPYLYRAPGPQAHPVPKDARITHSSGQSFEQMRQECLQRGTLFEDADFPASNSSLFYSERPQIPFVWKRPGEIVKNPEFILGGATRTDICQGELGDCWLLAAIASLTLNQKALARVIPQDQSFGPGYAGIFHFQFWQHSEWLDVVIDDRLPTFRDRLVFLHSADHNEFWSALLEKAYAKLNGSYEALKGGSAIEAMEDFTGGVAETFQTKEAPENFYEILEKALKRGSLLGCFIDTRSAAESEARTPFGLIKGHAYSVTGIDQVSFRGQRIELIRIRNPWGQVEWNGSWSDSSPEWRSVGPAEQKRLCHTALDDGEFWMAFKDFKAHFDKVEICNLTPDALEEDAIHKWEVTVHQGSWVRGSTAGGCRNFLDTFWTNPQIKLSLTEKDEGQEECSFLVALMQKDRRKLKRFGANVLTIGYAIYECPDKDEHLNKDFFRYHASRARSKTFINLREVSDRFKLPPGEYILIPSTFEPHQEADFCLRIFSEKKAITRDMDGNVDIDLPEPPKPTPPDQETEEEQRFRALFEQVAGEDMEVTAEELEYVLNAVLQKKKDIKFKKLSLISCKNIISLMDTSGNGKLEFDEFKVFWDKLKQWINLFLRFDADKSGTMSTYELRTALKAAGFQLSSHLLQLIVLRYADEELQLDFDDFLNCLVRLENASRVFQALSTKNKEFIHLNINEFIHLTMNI
T3 sequence (P04632 1-268 partner): T1 sequence (P04632 1-268 partner)
Procedure, shortened: as §1

[1] = test system: Calpain activity in SH-SY5Y cells (SBDP-150); experiment: SH-SY5Y Spectrin western blot assay (SBDP-150 breakdown product, A23187-induced); format: cell-based; settings: Homo sapiens; Column D; SH-SY5Y cells, A23187-induced SBDP-150; read-out: SH-SY5Y Spectrin IC50
[2] = test system: Calpain activity in SH-SY5Y cells; experiment: SH-SY5Y + AMC fluorescence assay (Suc-LLVY-AMC substrate); format: cell-based; settings: read-out: SH-SY5Y + AMC IC50

IC50 (Human Calpain 1/NS1; Column A) [µM] | IC50 (Human Calpain 2/NS1; Column B) [µM] | IC50 (Human Calpain 9/NS1; Column C) [µM] | IC50 [1] [µM] | IC50 (Human Calpain 1/NS1) [µM] | IC50 (Human Calpain 2/NS1) [µM] | IC50 [2] [µM] | IC50 (Human Calpain 9/NS1) [µM] | IC50 ([2]; Column E) [µM] | Molecule
– | – | – | – | < 3 | < 3 | < 10 | < 3 | – | COCCOCCNC(=O)C(=O)[C@H](Cc1ccccc1)NC(=O)c1cn(C)nc1-c1ccccc1 [Compound 335, (S)—N-(4-((2-(2-methoxyethoxy)ethyl)amino)-3,4-dioxo-1-phenylbutan-2-yl)-1-methyl-3-phenyl-1H-pyrazole-4-carboxamide]
– | – | – | – | < 3 | < 3 | < 10 | < 3 | – | CNC(=O)CNC(=O)C(=O)[C@H](Cc1ccccc1)NC(=O)c1cn(C)nc1-c1ccccc1 [Compound 336, (S)-1-methyl-N-(4-((2-(methylamino)-2-oxoethyl)amino)-3,4-dioxo-1-phenylbutan-2-yl)-3-phenyl-1H-pyrazole-4-carboxamide]
– | – | – | – | < 3 | < 3 | > 25 | < 3 | – | NC(=O)C(=O)C(Cc1ccccc1)NC(=O)c1cn(C2CC2)nc1-c1ccc(C(F)(F)F)nc1 (stereo not shown) [Compound 414, N-(4-amino-3,4-dioxo-1-phenylbutan-2-yl)-1-cyclopropyl-3-(6-(trifluoromethyl)pyridin-3-yl)-1H-pyrazole-4-carboxamide]
– | – | – | – | > 10 | > 10 | > 25 | > 10 | – | Cc1cc(C(=O)NC(Cc2ccccc2)C(O)C(N)=O)n(-c2ccnc(Cl)n2)n1 (stereo not shown) [Compound 434, N-(4-amino-3-hydroxy-4-oxo-1-phenylbutan-2-yl)-1-(2-chloropyrimidin-4-yl)-3-methyl-1H-pyrazole-5-carboxamide]
– | – | – | – | < 3 | < 3 | < 10 | 3 to 10 | – | O=C(NC1CC1)C(=O)C(Cc1ccccc1)NC(=O)c1cc(Cl)nn1-c1ncccn1 (stereo not shown) [Compound 457, 3-chloro-N-(4-(cyclopropylamino)-3,4-dioxo-1-phenylbutan-2-yl)-1-(pyrimidin-2-yl)-1H-pyrazole-5-carboxamide]
– | – | – | – | < 3 | < 3 | > 25 | < 3 | – | Cc1nc(C(=O)NC(Cc2ccccc2)C(=O)C(N)=O)c(-c2ccccc2)o1 (stereo not shown) [Compound 494, N-(4-amino-3,4-dioxo-1-phenylbutan-2-yl)-2-methyl-5-phenyloxazole-4-carboxamide]

More lines, now with the values behind:

Molecule | IC50 (Human Calpain 1/NS1; Column A) [µM] | IC50 (Human Calpain 2/NS1; Column B) [µM] | IC50 (Human Calpain 9/NS1; Column C) [µM] | IC50 [1] [µM] | IC50 (Human Calpain 1/NS1) [µM] | IC50 (Human Calpain 2/NS1) [µM] | IC50 [2] [µM] | IC50 (Human Calpain 9/NS1) [µM] | IC50 ([2]; Column E) [µM]
O=C[C@H](Cc1ccccc1)NC(=O)c1ccnn1-c1ccccc1 [Compound 2, (S)—N-(1-oxo-3-phenylpropan-2-yl)-1-phenyl-1H-pyrazole-5-carboxamide] | < 3 | < 3 | < 3 | 10 to 25 | – | – | – | – | –
NC(=O)C(=O)[C@H](Cc1ccccc1)NC(=O)c1conc1-c1cccc(F)c1 [Compound 323, (S)—N-(4-amino-3,4-dioxo-1-phenylbutan-2-yl)-3-(3-fluorophenyl)isoxazole-4-carboxamide] | – | – | – | – | < 3 | < 3 | > 25 | < 3 | –
Cc1nc(-c2ccccc2)c(C(=O)N[C@@H](Cc2ccc(OS(=O)(=O)C(F)(F)F)cc2)C(=O)C(N)=O)o1 [Compound 355] | – | – | – | – | < 3 | < 3 | 10 to 25 | < 3 | –
Cc1ccccc1-c1nc(C(F)(F)F)oc1C(=O)NC(Cc1ccccc1)C(=O)C(N)=O (stereo not shown) [Compound 359, N-(4-amino-3,4-dioxo-1-phenylbutan-2-yl)-4-(o-tolyl)-2-(trifluoromethyl)oxazole-5-carboxamide] | – | – | – | – | < 3 | < 3 | 10 to 25 | < 3 | –
Cc1cccc(-c2nsnc2C(=O)NC(Cc2ccccc2)C(=O)C(N)=O)c1F (stereo not shown) [Compound 368, N-(4-amino-3,4-dioxo-1-phenylbutan-2-yl)-4-(2-fluoro-3-methylphenyl)-1,2,5-thiadiazole-3-carboxamide] | – | – | – | – | < 3 | < 3 | < 10 | < 3 | –
NC(=O)C(=O)C(Cc1ccccc1)NC(=O)[C@@H]1CC2(CC2)CN1c1ccccc1 (stereo partly drawn) [Compound 411, (6S)—N-(4-amino-3,4-dioxo-1-phenylbutan-2-yl)-5-phenyl-5-azaspiro[2.4]heptane-6-carboxamide] | – | – | – | – | < 3 | < 3 | 10 to 25 | < 3 | –
Cn1cc(C(=O)NC(Cc2ccccc2)C(=O)C(N)=O)c(-c2ccsc2)n1 (stereo not shown) [Compound 503, N-(4-amino-3,4-dioxo-1-phenylbutan-2-yl)-1-methyl-3-(thiophen-3-yl)-1H-pyrazole-4-carboxamide] | – | – | – | – | < 3 | < 3 | 10 to 25 | < 3 | –
COc1ccccc1-c1nn(C)cc1C(=O)NC(Cc1ccccc1)C(=O)C(N)=O (stereo not shown) [Compound 511, N-(4-amino-3,4-dioxo-1-phenylbutan-2-yl)-3-(2-methoxyphenyl)-1-methyl-1H-pyrazole-4-carboxamide] | – | – | – | – | < 3 | < 3 | > 25 | < 3 | –
Cn1cc(C(=O)NC(C=O)c2ccccc2C(F)(F)F)c(-c2ccccc2F)n1 (stereo not shown) [Compound 519, 3-(2-Fluorophenyl)-1-METHYL-N-(2-oxo-1-(2-(trifluoromethyl)phenyl)ethyl)-1H-pyrazole-4-carboxamide] | – | – | – | – | > 10 | > 10 | > 25 | > 10 | –
(S)—N-(4-amino-3,4-dioxo-1-phenylbutan-2-yl)-1-methyl-3-(pyrimidin-4-yl)-1H-pyrazole-4-carboxamide [Compound 193] | 3 to 10 | < 3 | 3 to 10 | – | – | – | – | – | > 25
